Measurements: patent US20100093726A1 (Giuseppe CAMPIANI, priority 2007, published 2010)

Experiments:
[1] = test system: P. falciparum D10; experiment: In vitro antiplasmodial activity, P. falciparum D10 (CQ-S clone); type: cell-based; details: Plasmodium falciparum, D10, read-out: IC50 (nM) D10
Procedure: (§1) Some of the synthesized compounds were tested in vitro against two different strains of P. falciparum, namely 3D7, NF54 and D10 (CQ-S strain) and K1 and W2 (CQ-R strain).

[2] = Cytotoxicity on NSO cells; type: cell-based; details: mouse, NSO cells (plasmocytoma murine cell line); read-out: TC50 (μM) NSO cells
[3] = test system: P. falciparum NF54; experiment: In vitro antiplasmodial activity, P. falciparum NF54 (CQ-S clone); type: cell-based; details: Plasmodium falciparum, NF54, read-out: IC50 (nM) NF54
Procedure: as §1

[4] = Cytotoxicity on Daudi cells; type: cell-based; details: human, Daudi cells (human lymphoblastoid cell line); read-out: TC50 (μM) Daudi cells
[5] = test system: P. falciparum K1; experiment: microbe, parasite or virus in culture; type: cell-based; details: Plasmodium falciparum, K1, read-out: IC50 (nM) K1
Procedure: as §1

[6] = test system: P. falciparum W2; experiment: microbe, parasite or virus in culture; type: cell-based; details: Plasmodium falciparum, W2, read-out: IC50 (nM) W2
Procedure: as §1

[7] = Cytotoxicity on normal human lymphocytes; type: cell-based; details: normal human lymphocytes PHA-stimulated; read-out: TC50 (μM) Normal human lymphocytes
[8] = test system: Candida glabrata MGMI 2; experiment: Antifungal susceptibility (CLSI broth dilution), Candida glabrata; type: cell-based; details: CLSI protocol, clinical isolate
Description: (§2) (1) National Committee for Clinical Laboratory Standards. (2002). Reference method for broth dilution antifungal susceptibility testing of yeasts—Second Edition: Approved Standard, M27-A2. NCCLS, Wayne, Pa.; and
(§3) (2) National Committee for Clinical Laboratory Standards. Reference method for broth dilution antifungal susceptibility testing of filamentous fungi: Approved Standard, M38-A. 2002; NCCLS, Wayne, Pa.

[9] = test system: Cryptococcus neoformans MGMI 3; experiment: Antifungal susceptibility (CLSI broth dilution), Cryptococcus neoformans; type: cell-based; details: CLSI protocol, clinical isolate
Description: as §2, §3

[10] = test system: Aspergillus fumigatus MGMI 4; experiment: Antifungal susceptibility (CLSI broth dilution), Aspergillus fumigatus MGMI 4; type: cell-based; details: CLSI protocol, clinical isolate
Description: as §2, §3

[11] = test system: yeast and filamentous fungi; experiment: Antifungal activity, overall statement; type: cell-based; details: yeast and filamentous fungi of Table 4
[12] = test system: Aspergillus flavus ATCC ® 204304; experiment: Antifungal susceptibility (CLSI broth dilution), Aspergillus flavus; type: cell-based; details: CLSI protocol, reference strain
Description: as §2, §3

[13] = test system: Candida parapsilosis ATCC ® 22019; experiment: Antifungal susceptibility (CLSI broth dilution), Candida parapsilosis; type: cell-based; details: CLSI protocol, quality control strain
Description: as §2, §3

[14] = test system: P. falciparum 3D7; experiment: In vitro antiplasmodial activity, P. falciparum 3D7 (CQ-S clone); type: cell-based; details: Plasmodium falciparum, 3D7, read-out: IC50 (nM) 3D7
Procedure: as §1

[15] = test system: Aspergillus fumigatus MGMI 5; experiment: Antifungal susceptibility (CLSI broth dilution), Aspergillus fumigatus MGMI 5 (ITRA resistant); type: cell-based; details: for antifungal susceptibility value (MIC), Aspergillus fumigatus MGMI 5: CLSI protocol, clinical isolate, itraconazole resistant
Description: as §2, §3

[16] = test system: KB cell (human carcinoma of the nasopharynx cell line); experiment: Cytotoxicity on KB cells; type: cell-based
[17] = test system: P. Chabaudi AS; experiment: In vivo activity against P. chabaudi; details: per os; for P. Chabaudi AS (% inhibition at 50 mg/Kg): single dose of 50 mg/Kg
[18] = test system: Candida krusei ATCC ® 6258; experiment: Antifungal susceptibility (CLSI broth dilution), Candida krusei; type: cell-based; details: CLSI protocol, quality control strain
Description: as §2, §3

[19] = test system: Candida albicans MGMI 1; experiment: Antifungal susceptibility (CLSI broth dilution), Candida albicans; type: cell-based; details: CLSI protocol, clinical isolate
Description: as §2, §3

[20] = test system: β-hematin formation (hemin); experiment: BHIA (β-hematin inhibitory activity) assay; type: biochemical; details: hemin in dimethyl sulfoxide-acetate buffer at pH 5.0, 37° C., 18 h
[21] = test system: P. Berghei ANKA; experiment: In vivo activity against P. berghei; details: doses up to 100 mg/Kg
Procedure: The experiment was performed at a single dose of 50 mg/Kg. ED50 was determined for 9a in P. berghei ANKA. All compounds were adminstered per os.

Clc1cccc(C(Nc2ccnc3cc(Cl)ccc23)c2ccc(CN3CCOCC3)cc2)c1 (racemic) [Compound 9b]
IC50 [1]: 142 nM | CC50 [2]: 44.7 µM | IC50 [3]: 155 nM | CC50 [4]: 43.9 µM | IC50 [5]: 259 nM | IC50 [6]: 220 nM | CC50 [7]: 40.8 µM

Clc1ccc(C(Nc2ccnc3cc(Cl)ccc23)c2ccc(CN3CCCC3)cc2)cc1 (racemic) [Compound 9e]
antifungal susceptibility value (MIC), Candida glabrata MGMI 2 [8]: >32 | IC50 [1]: 45.8 nM | antifungal susceptibility value (MIC), Cryptococcus neoformans MGMI 3 [9]: 16 | antifungal susceptibility value (MIC), Aspergillus fumigatus MGMI 4 [10]: >32 | anti-fungal activity (in words) [11]: lack of anti-fungal activity | antifungal susceptibility value (MIC), Aspergillus flavus ATCC 204304 [12]: >32 | antifungal susceptibility value (MIC), Candida parapsilosis ATCC 22019 [13]: 16 | CC50 [2]: 8.65 µM | IC50 [3]: 15 nM | IC50 [14]: 3.7 nM | antifungal susceptibility value (MIC), Aspergillus fumigatus MGMI 5 [15]: >32 | CC50 [4]: 8.65 µM | IC50 [5]: 9 nM | IC50 [6]: 72.1 nM | TC50 (μM) KB cell [16]: 19.61 µM | CC50 [7]: 17.3 µM | P. Chabaudi AS (% inhibition at 50 mg/Kg) [17]: 99.5% | antifungal susceptibility value (MIC), Candida krusei ATCC 6258 [18]: >32 | antifungal susceptibility value (MIC), Candida albicans MGMI 1 [19]: >32

FC(F)(F)c1ccc2c(NC(c3cccc(Cl)c3)c3ccc(CN4CCOCC4)c(Cl)c3)ccnc2c1 (racemic) [Compound 9j]
IC50 [3]: 163 nM | IC50 [5]: 375 nM

FC(F)(F)c1ccc2c(NC(c3ccc(Cl)cc3)c3ccc(CN4CCCC4)cc3)ccnc2c1 (racemic) [Compound 9k]
antifungal susceptibility value (MIC), Candida glabrata MGMI 2 [8]: >32 | IC50 [1]: 61.5 nM | antifungal susceptibility value (MIC), Cryptococcus neoformans MGMI 3 [9]: 16 | antifungal susceptibility value (MIC), Aspergillus fumigatus MGMI 4 [10]: >32 | anti-fungal activity (in words) [11]: lack of anti-fungal activity | antifungal susceptibility value (MIC), Aspergillus flavus ATCC 204304 [12]: >32 | antifungal susceptibility value (MIC), Candida parapsilosis ATCC 22019 [13]: 16 | CC50 [2]: 12.1 µM | IC50 [3]: 20 nM | IC50 [14]: 0.2 nM | antifungal susceptibility value (MIC), Aspergillus fumigatus MGMI 5 [15]: >32 | CC50 [4]: 14.1 µM | IC50 [5]: 30 nM | IC50 [6]: 90.5 nM | TC50 (μM) KB cell [16]: 5.49 µM | CC50 [7]: 24.2 µM | P. Chabaudi AS (% inhibition at 50 mg/Kg) [17]: 99.6% | antifungal susceptibility value (MIC), Candida krusei ATCC 6258 [18]: >32 | antifungal susceptibility value (MIC), Candida albicans MGMI 1 [19]: 16

Clc1ccc(C(Nc2ccnc3cc(Cl)ccc23)(c2ccccc2)c2ccc(CN3CCCC3)cc2)cc1 (racemic) [Compound 15a]
CC50 [2]: 14.9 µM | IC50 [14]: 3 nM | CC50 [4]: 16.7 µM | IC50 [5]: 22 nM | CC50 [7]: 18.6 µM | P. Chabaudi AS (% inhibition at 50 mg/Kg) [17]: 99.9%

CCN(CC)Cc1cc(Nc2ccnc3cc(Cl)ccc23)ccc1O [Amodiaquine]
β-hematin inhibitory activity IC50 [20]: 0.79 ± 0.01 Molar equivalents of compound relative to hemin

Clc1ccccc1C(c1ccccc1)(c1ccccc1)n1ccnc1 [CLT, clotrimazole, reference compound]
antifungal susceptibility value (MIC), Cryptococcus neoformans MGMI 3 [9]: 2 µg/mL | antifungal susceptibility value (MIC), Aspergillus fumigatus MGMI 4 [10]: 4 µg/mL | antifungal susceptibility value (MIC), Aspergillus flavus ATCC 204304 [12]: 4 µg/mL | antifungal susceptibility value (MIC), Candida parapsilosis ATCC 22019 [13]: 2 µg/mL | activity against P. berghei in vivo [21]: not active | antifungal susceptibility value (MIC), Aspergillus fumigatus MGMI 5 [15]: 4 µg/mL | TC50 (μM) KB cell [16]: 88.1 µM | P. Chabaudi AS (% inhibition at 50 mg/Kg) [17]: 6.0% | antifungal susceptibility value (MIC), Candida albicans MGMI 1 [19]: 0.03 µg/mL

CCN(CC)CCCC(C)Nc1ccnc2cc(Cl)ccc12 (centres unmarked) [CQ, chloroquine, reference compound]
IC50 [1]: 22 nM | IC50 [3]: 7 nM | IC50 [14]: 10 nM | β-hematin inhibitory activity IC50 [20]: 0.91 ± 0.23 Molar equivalents of compound relative to hemin | IC50 [5]: 260 nM | IC50 [6]: 280 nM | TC50 (μM) KB cell [16]: 207.0 µM | P. Chabaudi AS (% inhibition) ([17]; 10 mg/Kg): 100 (10 mg/Kg) %

CCC(C)n1ncn(-c2ccc(N3CCN(c4ccc(OCC5COC(Cn6cncn6)(c6ccc(Cl)cc6Cl)O5)cc4)CC3)cc2)c1=O (centres unmarked) [ITRA, itraconazole, reference compound]
antifungal susceptibility value (MIC), Candida glabrata MGMI 2 [8]: 32 µg/mL | antifungal susceptibility value (MIC), Cryptococcus neoformans MGMI 3 [9]: 0.25 µg/mL | antifungal susceptibility value (MIC), Aspergillus fumigatus MGMI 4 [10]: 0.06 µg/mL | antifungal susceptibility value (MIC), Aspergillus flavus ATCC 204304 [12]: 0.06 µg/mL | antifungal susceptibility value (MIC), Candida parapsilosis ATCC 22019 [13]: 0.125 µg/mL | MIC ([15]; Aspergillus fumigatus, MGMI5, strain description in text, itraconazole resistant isolate): > 16 µg/mL | antifungal susceptibility value (MIC), Aspergillus fumigatus MGMI 5 [15]: > 32 µg/mL | antifungal susceptibility value (MIC), Candida krusei ATCC 6258 [18]: 0.25 µg/mL | antifungal susceptibility value (MIC), Candida albicans MGMI 1 [19]: 0.25 µg/mL
